Test results as given in publication PMC4184702 (Pharmacology Research & Perspectives, 2014).
Entries after “also recorded” stand apart in the source; their conditions may differ.

Key:
Oxytocin = target: T1, Oxytocin (Homo sapiens, UniProt P30559); experiment: PDSP primary binding, Oxytocin; settings: n = 4, read-out: Inhibition (primary binding competition efficacy), Oxytocin
T1 construct: purchased NIMH Psychoactive Drug Screening Program (PDSP)
Experimental: (§1) For experimental details, please refer to the Psychoactive Drug Screening Program (PDSP) web site http://pdsp.med.unc.edu/.
(§2) ^a The default concentration for primary binding experiments is 10 µM (n = 4). ^b Negative inhibition represents a stimulation of binding. ^c BZPR: Benzodiazepine Receptors (rat brain site). ^d DOR: Delta Opioid Receptor; KOR: Kappa Opioid Receptor; MOR: Mu Opioid Receptor. ^e DAT: Dopamine Transporter; NET: Norepinephrine Transporter; SERT: Serotonin Transporter. ^f NMDA: N-methyl-D-aspartate receptor.

[1] = target: hERG (human ether-a-go-go-related gene) (Homo sapiens, UniProt Q12809); experiment: hERG inhibition assay; settings: in words
[2] = target: T2, KOR: Kappa Opioid Receptor (Homo sapiens, UniProt P41145); experiment: PDSP primary binding, KOR; settings: n = 4, read-out: Inhibition (primary binding competition efficacy), KOR
T2 construct: purchased NIMH Psychoactive Drug Screening Program (PDSP)
Experimental: as §1, §2

[3] = target: β2-containing nAChRs (α2β2, α3β2, α4β2, and α4β2*); parameters: method as in Yu et al. [2012]; settings: ref Yu et al. [2012], read-out: Ki values range at β2-containing nAChRs; cited from earlier work
β2 adrenergic receptor = target: T3, β2 adrenergic receptor (Homo sapiens, UniProt P07550); experiment: PDSP primary binding, β2; settings: n = 4, read-out: Inhibition (primary binding competition efficacy), β2
T3 construct: purchased NIMH Psychoactive Drug Screening Program (PDSP)
Experimental: as §1, §2

CYP3A = CYP3A inhibition, HLM, midazolam substrate; format: in vitro ADME, human; settings: 1.0E-05 M
Description: Supplement prp20002-e00026-sd1.doc, table 3: Table 3.

[4] = Metabolic stability, liver microsomes, mouse; format: in vitro ADME; settings: CD-1, 1.0E-06 M, 1 h
CB2 = target: T4, CB2 (Homo sapiens, UniProt P34972); experiment: PDSP primary binding, CB2; settings: n = 4, read-out: Inhibition (primary binding competition efficacy), CB2
T4 construct: purchased NIMH Psychoactive Drug Screening Program (PDSP)
Experimental: as §1, §2

5-HT2B = target: T5, 5-HT2B (Homo sapiens, UniProt P41595); experiment: PDSP primary binding, 5-HT2B; settings: n = 4, read-out: Inhibition (primary binding competition efficacy), 5-HT2B
T5 construct: purchased NIMH Psychoactive Drug Screening Program (PDSP)
Experimental: as §1, §2

[5] = target: T6, SERT: Serotonin Transporter (Homo sapiens, UniProt P31645); experiment: PDSP primary binding, SERT; settings: n = 4, read-out: Inhibition (primary binding competition efficacy), SERT
T6 construct: purchased NIMH Psychoactive Drug Screening Program (PDSP)
Experimental: as §1, §2

5-HT1A = target: T7, 5-HT1A (Homo sapiens, UniProt P08908); experiment: PDSP primary binding, 5-HT1A; settings: n = 4, read-out: Inhibition (primary binding competition efficacy), 5-HT1A
T7 construct: purchased NIMH Psychoactive Drug Screening Program (PDSP)
Experimental: as §1, §2

5-HT5A = target: T8, 5-HT5A (Homo sapiens, UniProt P47898); experiment: PDSP primary binding, 5-HT5A; settings: n = 4, read-out: Inhibition (primary binding competition efficacy), 5-HT5A
T8 construct: purchased NIMH Psychoactive Drug Screening Program (PDSP)
Experimental: as §1, §2

Male C57 BL6 mice = experiment: SmartCube test; format: in vivo, mouse
Experimental: Male C57 BL6 mice (Taconic Farms) were used in the SmartCube® assay (PsychoGenics Inc., Tarrytown, NY). Mice were received at 7 weeks old and group-housed in OptiMICE ventilated cages with four mice/cage. Mice were acclimated to the colony room for at least 1 week prior to the first injections. All animals were tested in SmartCube® at 8 10 weeks old.
To acquire initial in vivo evaluation of our nicotinic ligands for behavioral effects relevant to psychiatric diseases, we used SmartCube®, an automated system in which mouse behavior is captured by digital video using novel, proprietary hardware that presents multiple challenges in a single test session and is analyzed with computer algorithms. Digital videos of the subjects are processed with computer vision algorithms to extract more than 1400 dependent measures including frequency and duration of behavioral states such as grooming, rearing, etc., and many other features obtained during the test session. Using machine learning techniques chosen to best separate pharmacological effects of reference compounds, the behavioral signatures of the mutant mice are then assessed quantitatively.
The most dominant of the features collected that define the drug class signature are identified and ranked using complex proprietary bioinformatics algorithms. The outcome of a SmartCube® run is a set of more than 1400 features (behavioral parameters) that can be used for various analyses. Many of these features are correlated (e.g., rearing counts and supported rearing counts). Therefore, we form statistically independent combinations of the original features (further referred to as decorrelated features) that discriminate between the groups more effectively. Next, we apply a proprietary feature ranking algorithm to score each feature discrimination power to weight each feature change by its relevance. The data obtained in this way are used to define drug signatures for known reference compounds and to establish therapeutic class signatures against which a test sample can be compared. The neuropharmacological effects of a test compound can be predicted by similarity to major classes of compounds, such as antipsychotics, anxiolytics, and antidepressants (Roberds et al. [2011]).
Mice are taken in their home cage to the SmartCube® suite of experimental rooms where they remain until they are placed in the apparatus for a single testing session. A standard SmartCube® protocol runs for a single session (∼45 min). After the session mice are group-housed again and brought back to the colony room. Any abnormal behavior is noted. […] At least 12 mice were used in each treatment group.

5-HT2A = target: T9, 5-HT2A (Homo sapiens, UniProt P28223); experiment: PDSP primary binding, 5-HT2A; settings: n = 4, read-out: Inhibition (primary binding competition efficacy), 5-HT2A
T9 construct: purchased NIMH Psychoactive Drug Screening Program (PDSP)
Experimental: as §1, §2

5-HT6 = target: T10, 5-HT6 (Homo sapiens, UniProt P50406); experiment: PDSP primary binding, 5-HT6; settings: n = 4, read-out: Inhibition (primary binding competition efficacy), 5-HT6
T10 construct: purchased NIMH Psychoactive Drug Screening Program (PDSP)
Experimental: as §1, §2

[6] = tested on: BZPR: Benzodiazepine Receptors (rat brain site); experiment: PDSP primary binding, BZPR; settings: 10 µM, n = 4
Experimental: as §1, §2

D5 dopamine receptor = target: T11, D5 dopamine receptor (Homo sapiens, UniProt P21918); experiment: PDSP primary binding, D5; settings: n = 4, read-out: Inhibition (primary binding competition efficacy), D5
T11 construct: purchased NIMH Psychoactive Drug Screening Program (PDSP)
Experimental: as §1, §2

H2 histamine receptor = target: T12, H2 histamine receptor (Homo sapiens, UniProt P25021); experiment: PDSP primary binding, H2; settings: n = 4, read-out: Inhibition (primary binding competition efficacy), H2
T12 construct: purchased NIMH Psychoactive Drug Screening Program (PDSP)
Experimental: as §1, §2

5-HT3 = target: T13, 5-HT3 (Homo sapiens, UniProt P46098); experiment: PDSP primary binding, 5-HT3; settings: n = 4, read-out: Inhibition (primary binding competition efficacy), 5-HT3
T13 construct: purchased NIMH Psychoactive Drug Screening Program (PDSP)
Experimental: as §1, §2

T13 sequence (P46098 24-478): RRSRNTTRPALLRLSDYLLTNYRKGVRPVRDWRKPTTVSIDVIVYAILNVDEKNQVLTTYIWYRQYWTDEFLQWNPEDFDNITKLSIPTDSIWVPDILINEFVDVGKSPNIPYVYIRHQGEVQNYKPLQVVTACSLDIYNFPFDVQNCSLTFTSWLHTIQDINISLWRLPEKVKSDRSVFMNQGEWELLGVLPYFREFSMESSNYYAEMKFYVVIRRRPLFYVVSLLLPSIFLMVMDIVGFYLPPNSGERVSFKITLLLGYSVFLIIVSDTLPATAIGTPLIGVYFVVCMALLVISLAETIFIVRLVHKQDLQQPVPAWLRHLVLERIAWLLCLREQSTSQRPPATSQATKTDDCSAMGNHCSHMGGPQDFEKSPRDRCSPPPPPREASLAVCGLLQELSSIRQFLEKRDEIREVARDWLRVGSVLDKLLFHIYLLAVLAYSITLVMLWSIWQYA
T2 sequence (P41145 whole entry): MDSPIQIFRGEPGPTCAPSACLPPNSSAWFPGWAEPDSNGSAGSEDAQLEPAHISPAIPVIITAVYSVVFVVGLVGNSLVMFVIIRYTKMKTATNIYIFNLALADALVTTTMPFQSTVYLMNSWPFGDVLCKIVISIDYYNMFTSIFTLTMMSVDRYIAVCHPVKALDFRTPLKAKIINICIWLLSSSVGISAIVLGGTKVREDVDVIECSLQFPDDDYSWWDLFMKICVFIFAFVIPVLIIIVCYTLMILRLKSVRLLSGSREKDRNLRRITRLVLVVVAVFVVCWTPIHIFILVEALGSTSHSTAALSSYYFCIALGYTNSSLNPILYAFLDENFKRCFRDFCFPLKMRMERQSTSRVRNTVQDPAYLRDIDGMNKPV
T4 sequence (P34972 whole entry): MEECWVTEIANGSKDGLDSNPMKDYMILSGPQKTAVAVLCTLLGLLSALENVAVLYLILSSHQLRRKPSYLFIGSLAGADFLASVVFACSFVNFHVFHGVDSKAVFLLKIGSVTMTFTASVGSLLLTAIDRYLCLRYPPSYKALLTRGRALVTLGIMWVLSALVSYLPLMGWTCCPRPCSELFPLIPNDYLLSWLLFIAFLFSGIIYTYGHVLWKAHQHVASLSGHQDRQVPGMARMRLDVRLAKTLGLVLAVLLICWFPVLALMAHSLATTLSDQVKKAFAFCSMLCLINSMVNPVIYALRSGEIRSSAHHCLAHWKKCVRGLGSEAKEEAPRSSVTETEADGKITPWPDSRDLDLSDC
T12 sequence (P25021 whole entry): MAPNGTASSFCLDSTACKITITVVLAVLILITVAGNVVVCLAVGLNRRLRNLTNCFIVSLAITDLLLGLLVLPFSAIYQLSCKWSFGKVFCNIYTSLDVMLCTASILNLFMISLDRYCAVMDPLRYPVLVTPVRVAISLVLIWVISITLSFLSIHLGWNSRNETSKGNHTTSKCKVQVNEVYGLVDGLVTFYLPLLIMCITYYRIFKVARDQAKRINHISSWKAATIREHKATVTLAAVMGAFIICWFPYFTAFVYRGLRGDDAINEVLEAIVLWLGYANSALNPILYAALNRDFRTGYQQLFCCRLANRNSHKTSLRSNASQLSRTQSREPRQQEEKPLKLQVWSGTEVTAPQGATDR
T5 sequence (P41595 whole entry): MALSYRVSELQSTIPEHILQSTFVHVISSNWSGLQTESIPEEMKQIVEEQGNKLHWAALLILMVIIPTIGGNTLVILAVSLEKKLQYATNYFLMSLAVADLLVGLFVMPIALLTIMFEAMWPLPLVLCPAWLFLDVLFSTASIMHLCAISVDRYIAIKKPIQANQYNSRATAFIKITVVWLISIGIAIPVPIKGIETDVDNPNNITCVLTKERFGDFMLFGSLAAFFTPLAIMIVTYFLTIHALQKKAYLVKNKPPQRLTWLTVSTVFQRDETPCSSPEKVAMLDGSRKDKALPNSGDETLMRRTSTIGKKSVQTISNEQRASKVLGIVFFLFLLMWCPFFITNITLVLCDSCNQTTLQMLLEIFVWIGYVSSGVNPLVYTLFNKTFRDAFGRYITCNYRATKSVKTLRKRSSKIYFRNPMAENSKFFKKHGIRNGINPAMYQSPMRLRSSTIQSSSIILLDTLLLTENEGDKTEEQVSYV
T9 sequence (P28223 whole entry): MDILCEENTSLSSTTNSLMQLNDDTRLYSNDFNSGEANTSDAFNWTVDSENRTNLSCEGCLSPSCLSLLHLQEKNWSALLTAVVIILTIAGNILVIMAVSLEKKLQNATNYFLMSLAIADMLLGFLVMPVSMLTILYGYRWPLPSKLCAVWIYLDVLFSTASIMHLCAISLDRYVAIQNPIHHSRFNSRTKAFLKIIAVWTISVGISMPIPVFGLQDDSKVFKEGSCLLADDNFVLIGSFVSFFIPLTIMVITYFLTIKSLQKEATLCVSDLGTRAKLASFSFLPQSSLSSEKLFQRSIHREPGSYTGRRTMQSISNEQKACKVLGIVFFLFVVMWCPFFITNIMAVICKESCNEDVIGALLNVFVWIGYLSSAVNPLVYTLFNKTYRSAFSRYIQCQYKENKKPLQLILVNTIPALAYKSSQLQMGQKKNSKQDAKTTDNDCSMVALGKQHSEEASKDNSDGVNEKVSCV
T3 sequence (P07550 whole entry): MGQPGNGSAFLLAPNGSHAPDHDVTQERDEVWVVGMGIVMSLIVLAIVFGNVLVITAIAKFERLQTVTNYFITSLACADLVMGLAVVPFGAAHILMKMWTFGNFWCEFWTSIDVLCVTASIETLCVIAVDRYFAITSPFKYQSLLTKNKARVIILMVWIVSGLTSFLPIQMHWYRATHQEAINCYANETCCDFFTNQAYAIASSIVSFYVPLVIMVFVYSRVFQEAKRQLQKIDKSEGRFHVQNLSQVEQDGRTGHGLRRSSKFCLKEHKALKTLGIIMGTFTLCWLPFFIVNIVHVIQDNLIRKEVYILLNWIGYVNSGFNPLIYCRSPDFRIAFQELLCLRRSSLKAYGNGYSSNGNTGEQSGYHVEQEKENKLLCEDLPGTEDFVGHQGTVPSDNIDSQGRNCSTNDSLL
T1 sequence (P30559 whole entry): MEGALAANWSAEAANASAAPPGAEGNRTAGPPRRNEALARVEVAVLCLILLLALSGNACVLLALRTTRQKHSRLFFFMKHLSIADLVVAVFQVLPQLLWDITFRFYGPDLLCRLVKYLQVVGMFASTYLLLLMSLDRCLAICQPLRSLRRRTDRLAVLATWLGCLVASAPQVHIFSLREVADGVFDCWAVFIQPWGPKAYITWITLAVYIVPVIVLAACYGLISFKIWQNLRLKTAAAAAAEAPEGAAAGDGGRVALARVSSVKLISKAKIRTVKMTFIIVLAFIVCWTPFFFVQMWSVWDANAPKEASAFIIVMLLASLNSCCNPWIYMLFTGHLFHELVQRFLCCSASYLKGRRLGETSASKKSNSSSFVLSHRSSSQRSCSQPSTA
T8 sequence (P47898 whole entry): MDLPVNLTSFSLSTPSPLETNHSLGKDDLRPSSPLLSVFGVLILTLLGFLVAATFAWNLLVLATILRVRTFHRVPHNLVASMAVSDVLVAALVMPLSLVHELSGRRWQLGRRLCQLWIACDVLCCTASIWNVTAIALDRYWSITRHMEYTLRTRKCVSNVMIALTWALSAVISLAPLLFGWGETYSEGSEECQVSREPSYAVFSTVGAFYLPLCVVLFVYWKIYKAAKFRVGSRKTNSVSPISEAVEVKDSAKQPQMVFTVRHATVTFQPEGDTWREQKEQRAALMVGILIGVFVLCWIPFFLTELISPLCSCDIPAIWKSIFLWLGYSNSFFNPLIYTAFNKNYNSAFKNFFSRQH
T7 sequence (P08908 whole entry): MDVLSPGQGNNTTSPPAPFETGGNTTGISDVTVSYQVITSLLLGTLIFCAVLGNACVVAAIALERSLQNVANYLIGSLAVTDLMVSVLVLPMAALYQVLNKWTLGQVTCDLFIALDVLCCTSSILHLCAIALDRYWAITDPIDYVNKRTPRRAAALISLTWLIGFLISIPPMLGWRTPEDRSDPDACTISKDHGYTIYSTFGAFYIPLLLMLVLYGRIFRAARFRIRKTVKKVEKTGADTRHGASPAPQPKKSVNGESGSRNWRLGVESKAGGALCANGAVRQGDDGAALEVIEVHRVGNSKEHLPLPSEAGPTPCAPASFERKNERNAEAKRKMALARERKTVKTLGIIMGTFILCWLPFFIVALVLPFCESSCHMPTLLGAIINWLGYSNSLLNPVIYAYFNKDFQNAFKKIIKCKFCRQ
T10 sequence (P50406 whole entry): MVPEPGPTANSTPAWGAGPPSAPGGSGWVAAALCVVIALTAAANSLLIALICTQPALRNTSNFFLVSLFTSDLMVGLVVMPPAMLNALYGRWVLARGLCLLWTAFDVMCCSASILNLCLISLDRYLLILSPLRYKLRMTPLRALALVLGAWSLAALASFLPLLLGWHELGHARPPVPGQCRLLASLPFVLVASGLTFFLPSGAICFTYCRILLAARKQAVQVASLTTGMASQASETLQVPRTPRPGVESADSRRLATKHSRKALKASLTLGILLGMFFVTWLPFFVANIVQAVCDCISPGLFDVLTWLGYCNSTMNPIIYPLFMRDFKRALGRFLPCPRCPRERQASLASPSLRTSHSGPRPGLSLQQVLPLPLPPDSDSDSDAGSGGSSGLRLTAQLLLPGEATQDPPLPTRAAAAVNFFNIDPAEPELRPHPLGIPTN

Compound: OCCc1cc(-c2cncc(OC[C@@H]3CCN3)c2)on1 [LF-3-88, 2-[5-[5-(2(S)-azetidinylmethoxyl)-3-pyridyl]-3-isoxazolyl]ethanol]
- inhibition at 10 µM (Oxytocin): 6.4%
- profile in hERG inhibition assay [1]: favorable profile
- inhibition at 10 µM [2]: 3%
- Ki [3]: 0.6 to 15.4 nM
- inhibition at 10 µM (β2 adrenergic receptor): 6.8%
- CYP3A Inhibition (CYP3A): 1%
- Remaining (metabolic stability) [4]: 81%
- inhibition at 10 µM (CB2): -7.3%
- inhibition at 10 µM (5-HT2B): 7.9%
- inhibition at 10 µM [5]: -0.2%
- inhibition at 10 µM (5-HT1A): 4.2%
- inhibition at 10 µM (5-HT5A): 13.2%
- SmartCube antidepressant (green) component (Male C57 BL6 mice; 5 and 10 mg/kg, i.p.): antidepressive-like behavioral signatures; also recorded: potential antidepressive-like behavior; also recorded: most pronounced
- SmartCube side effects (Male C57 BL6 mice; 5 and 10 mg/kg, i.p.): Minimal side effects
- SmartCube side effect signature (Male C57 BL6 mice; both tested doses (5 and 10 mg/kg)): less than 10%
- SmartCube behavioral signature (Male C57 BL6 mice; both tested doses, i.p., 15 min preinjection): robust CNS drug-like signatures
- inhibition at 10 µM (5-HT2A): 34.1%
- inhibition at 10 µM (5-HT6): -1.9%
- Inhibition (primary binding competition efficacy), BZPR [6]: 6.7%
- inhibition at 10 µM (D5 dopamine receptor): 5.8%
- inhibition at 10 µM (H2 histamine receptor): 39.5%
- inhibition at 10 µM (5-HT3): -1%
